SMILES strings stand for the structures. Calls of active or inactive are those of the source.

This passage reports IC50 and EC50 results from ChEMBL document CHEMBL1201862, “PubChem BioAssay data set” (2004).

For assay [1], the target named is Phospholipase A2 (Homo sapiens, UniProt P04054). The assay is classed as functional.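 Also: confirmatory dose-response counterscreen on phospholipase A2, testing hits that came from an ultra-high-throughput screen for ATG4B inhibitors.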
Assay [2] concerns the target T1, Cysteine protease ATG4B (Homo sapiens, UniProt Q9Y4P1).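 Also: Fluorescence-based dose-response confirmation assay measuring inhibition of ATG4B activity.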
T1 sequence (Q9Y4P1 whole entry): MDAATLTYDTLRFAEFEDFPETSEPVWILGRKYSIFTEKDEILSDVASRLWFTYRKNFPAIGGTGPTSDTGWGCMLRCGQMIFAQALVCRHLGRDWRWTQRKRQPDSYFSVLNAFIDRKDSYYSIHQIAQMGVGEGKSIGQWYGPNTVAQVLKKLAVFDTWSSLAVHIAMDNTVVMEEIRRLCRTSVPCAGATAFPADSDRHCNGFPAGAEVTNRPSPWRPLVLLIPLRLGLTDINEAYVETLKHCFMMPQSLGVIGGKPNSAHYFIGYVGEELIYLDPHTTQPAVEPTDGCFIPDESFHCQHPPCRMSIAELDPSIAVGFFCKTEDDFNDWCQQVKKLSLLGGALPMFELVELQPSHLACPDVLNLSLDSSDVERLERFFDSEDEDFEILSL
In kind it is functional.

In assay [3] the test system is HEK293. In words: cells. In kind it is functional, cell-based. The conditions noted are these: Homo sapiens.
The nature of assay [4]: cytotoxicity toward DRD oncogenic fibroblasts, dose response, cell-based, non-viral oncogenic, luminescence (AID 1934). In kind it is functional. The conditions noted are these: Homo sapiens.
The subject of assay [5] is BJ. In words: cells. The conditions noted are these: Homo sapiens. The assay is classed as functional, cell-based.
Assay [6] concerns BJ. Description: cytotoxicity toward BJ-TERT fibroblasts, dose response, cell-based, RAS-independent, luminescence (AID 1933). In kind it is functional. The conditions noted are these: Homo sapiens.
Assay [7] deals with Nucleotide-binding oligomerization domain-containing protein 2 (Homo sapiens, UniProt Q9HC29). Description: NOD2 signaling inhibitors, cell-based, luminescence, uHTS, HEK293 (AID 1566). In kind it is functional.
The test system of assay [8] is HEK293. In words: cells. In kind it is functional, cell-based. The conditions noted are these: Homo sapiens. The source holds these as a separate data set.
The subject of assay [9] is HEK293. Description: NOD2 signaling inhibitors in MDP-stimulated cells, cell-based, uHTS, luminescence (AID 2001). The assay is classed as functional. The conditions noted are these: Homo sapiens.
For assay [10], the system named is HEK293. Description: cells. The assay is classed as functional, cell-based. The conditions noted are these: Homo sapiens. The source holds these as a separate data set.
The target in assay [11] is Nonstructural protein 1 (Influenza A virus, UniProt Q194T2). In kind it is functional, Influenza A virus (A/California/07/2009(H1N1)).
Assay [12] relates to BJ. In words: cytotoxicity toward BJ-TERT-LT-ST fibroblasts, dose response, cell-based, RAS-independent, luminescence (AID 1935).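 Also: BJ fibroblasts immortalized with TERT plus LT and ST oncogenes.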 In kind it is functional. The conditions noted are these: Homo sapiens.
The test system of assay [13] is HEK293. In words: NOD1 signaling inhibitors, primary screen, cell-based, luminescence, uHTS (AID 1578). The assay is classed as functional. The conditions noted are these: Homo sapiens.
Assay [14] concerns Streptococcus sp. 'group A'. Description: growth inhibition of control SK(-) GAS strain, dose response, counter-screen for streptokinase expression inhibitor project, luminescence, kanamycin, BacTiterGlo, confirmation (AID 1900). In kind it is functional, organism-based. In general terms: A counterscreen serves to expose hits that act by an unwanted route or on another target.

Assay [15] has as its target T2, Streptokinase A (Streptococcus pyogenes serotype M1, UniProt P10520).
T2 sequence (P10520 whole entry): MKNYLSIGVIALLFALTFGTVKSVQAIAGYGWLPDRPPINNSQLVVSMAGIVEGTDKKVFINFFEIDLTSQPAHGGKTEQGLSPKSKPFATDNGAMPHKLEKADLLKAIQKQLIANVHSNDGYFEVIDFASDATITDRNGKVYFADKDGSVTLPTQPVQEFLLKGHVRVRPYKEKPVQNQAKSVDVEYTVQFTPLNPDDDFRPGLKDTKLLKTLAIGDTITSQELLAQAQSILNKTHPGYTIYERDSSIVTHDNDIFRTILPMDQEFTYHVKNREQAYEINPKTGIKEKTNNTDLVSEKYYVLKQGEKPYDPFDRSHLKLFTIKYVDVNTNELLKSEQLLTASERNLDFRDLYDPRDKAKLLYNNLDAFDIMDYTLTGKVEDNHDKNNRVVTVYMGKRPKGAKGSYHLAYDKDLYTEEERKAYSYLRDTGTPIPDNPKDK
Description: S. pyogenes streptokinase expression inhibitors, potency, dose response, plasminogen activation absorbance, OD405 (AID 1914).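 Also: secreted streptokinase activity via plasminogen activation per viability signal from cell pellet.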 In kind it is functional, Streptococcus pyogenes M1 GAS.

For assay [16], the target named is Peroxisome proliferator-activated receptor gamma/Nuclear receptor coactivator 1 (Homo sapiens, UniProt P37231). In words: TR-FRET dose response biochemical High Throughput Screening assay for agonists of the steroid receptor coactivator 1 (SRC-1) recruitment by the peroxisome proliferator-activated receptor gamma (PPAR gamma): non-selective agonists. [Related pubchem assays (depositor defined):AID1300, AID1808, AID504735, AID631]. The assay is classed as protein assay. Background: TR-FRET usually uses a lanthanide donor and a delayed reading to cut background.

Assay [17] concerns the target Peroxisome proliferator-activated receptor gamma/Nuclear receptor coactivator 3 (Homo sapiens, UniProt P37231). Description: TR-FRET dose response biochemical High Throughput Screening assay for agonists of the steroid receptor coactivator 3 (SRC-3) recruitment by the peroxisome proliferator-activated receptor gamma (PPAR gamma): non-selective agonists. [Related pubchem assays: 1301 (Confirmation screen.), 1048 (Primary screen.)]. In kind it is functional.

Assay [18] deals with Streptococcus. In words: Group A Streptococcus viability loss, dose response, counter-screen for streptokinase expression inhibitor project, luminescence, BacTiterGlo (AID 1915).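 Also: potency for reduction of bacterial viability or growth.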 In kind it is functional, organism-based.
Assay [19] has as its target Peroxisome proliferator-activated receptor gamma/Nuclear receptor coactivator 2 (Homo sapiens, UniProt P37231). In words: TR-FRET dose response biochemical High Throughput Screening assay for agonists of the steroid receptor coactivator 2 (SRC-2) recruitment by the peroxisome proliferator-activated receptor gamma (PPAR gamma): non-selective agonists. [Related pubchem assays: 1297, 1032 ]. The assay is classed as functional.

A short description of assay [20]: cytotoxicity in HPDE-C7 cells, cell-based, fluorescence, HTS (AID 430). In kind it is functional. The conditions noted are these: Homo sapiens.
The target in assay [21] is G-protein coupled receptor 55 (Homo sapiens, UniProt Q9Y2T6). In words: GPR55 agonists via beta-arrestin recruitment, primary screen, imaging, U2OS cells, beta-arrestin-GFP redistribution (AID 1961). In kind it is functional. (In general: Arrestin recruitment assays detect the binding of arrestin to an activated receptor.)
Assay [22] in a line: cytotoxicity in KRAS-transformed pancreatic duct cells, primary screen, cell-based, fluorescence, HTS (AID 431).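 Also: cell line used: HPDE-C7K.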 In kind it is functional. The conditions noted are these: Homo sapiens.
The target of assay [23] is T3, Estrogen receptor (Homo sapiens, UniProt P03372).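 Also: potency for inhibiting coactivator peptide recruitment to the receptor.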
T3 sequence (P03372 whole entry): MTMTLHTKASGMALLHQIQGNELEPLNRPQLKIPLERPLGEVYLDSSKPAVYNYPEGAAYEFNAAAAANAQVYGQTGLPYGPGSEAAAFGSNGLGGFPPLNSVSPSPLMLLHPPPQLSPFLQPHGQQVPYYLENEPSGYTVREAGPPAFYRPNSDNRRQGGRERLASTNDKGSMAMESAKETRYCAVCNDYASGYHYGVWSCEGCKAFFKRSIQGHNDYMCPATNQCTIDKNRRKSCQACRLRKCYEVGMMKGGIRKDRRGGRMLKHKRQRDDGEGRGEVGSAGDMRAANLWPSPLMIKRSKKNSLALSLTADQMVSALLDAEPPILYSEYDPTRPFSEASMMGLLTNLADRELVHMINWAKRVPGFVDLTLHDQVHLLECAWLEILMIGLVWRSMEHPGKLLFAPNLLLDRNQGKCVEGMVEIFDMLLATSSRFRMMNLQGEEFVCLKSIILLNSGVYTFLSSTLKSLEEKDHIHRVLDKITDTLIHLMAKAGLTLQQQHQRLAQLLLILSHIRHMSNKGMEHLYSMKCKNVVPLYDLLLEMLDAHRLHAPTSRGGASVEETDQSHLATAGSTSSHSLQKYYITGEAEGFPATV

G-protein coupled receptor 55, sequence (Q9Y2T6 whole entry): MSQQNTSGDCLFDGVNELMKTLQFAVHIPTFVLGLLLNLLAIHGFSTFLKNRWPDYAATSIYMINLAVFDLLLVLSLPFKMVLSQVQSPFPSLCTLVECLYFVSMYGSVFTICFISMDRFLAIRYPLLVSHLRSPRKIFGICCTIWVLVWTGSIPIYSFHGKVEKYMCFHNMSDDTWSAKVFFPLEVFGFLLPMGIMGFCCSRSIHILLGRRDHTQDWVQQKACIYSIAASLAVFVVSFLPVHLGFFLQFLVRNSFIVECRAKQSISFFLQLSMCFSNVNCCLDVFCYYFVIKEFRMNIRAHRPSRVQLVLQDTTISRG
Nucleotide-binding oligomerization domain-containing protein 2, sequence (Q9HC29 whole entry, the tested form may be a part): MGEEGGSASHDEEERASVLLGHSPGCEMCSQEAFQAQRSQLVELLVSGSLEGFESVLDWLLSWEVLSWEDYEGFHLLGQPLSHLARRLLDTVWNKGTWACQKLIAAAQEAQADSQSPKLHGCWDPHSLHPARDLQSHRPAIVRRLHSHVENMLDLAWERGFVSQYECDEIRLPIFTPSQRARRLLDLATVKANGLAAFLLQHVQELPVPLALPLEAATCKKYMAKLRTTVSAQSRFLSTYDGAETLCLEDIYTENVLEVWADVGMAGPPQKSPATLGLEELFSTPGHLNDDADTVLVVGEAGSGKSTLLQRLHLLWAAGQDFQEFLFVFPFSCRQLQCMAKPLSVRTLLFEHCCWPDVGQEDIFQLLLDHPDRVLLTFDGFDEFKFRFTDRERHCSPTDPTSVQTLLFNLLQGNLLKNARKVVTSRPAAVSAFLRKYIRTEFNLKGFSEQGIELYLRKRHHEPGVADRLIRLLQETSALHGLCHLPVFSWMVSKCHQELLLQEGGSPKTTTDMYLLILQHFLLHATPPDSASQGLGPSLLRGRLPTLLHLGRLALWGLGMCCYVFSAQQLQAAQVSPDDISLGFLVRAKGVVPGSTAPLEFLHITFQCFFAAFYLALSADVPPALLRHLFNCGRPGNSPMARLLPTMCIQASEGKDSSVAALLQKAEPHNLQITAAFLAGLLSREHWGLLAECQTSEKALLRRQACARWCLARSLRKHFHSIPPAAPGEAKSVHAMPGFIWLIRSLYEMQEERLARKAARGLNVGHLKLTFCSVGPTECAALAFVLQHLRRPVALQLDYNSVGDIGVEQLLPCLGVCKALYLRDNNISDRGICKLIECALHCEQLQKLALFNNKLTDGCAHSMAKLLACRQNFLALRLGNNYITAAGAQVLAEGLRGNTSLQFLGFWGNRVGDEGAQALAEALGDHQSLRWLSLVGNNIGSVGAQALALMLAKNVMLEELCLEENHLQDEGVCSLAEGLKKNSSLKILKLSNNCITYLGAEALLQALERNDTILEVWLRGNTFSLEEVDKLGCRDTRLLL
Peroxisome proliferator-activated receptor gamma/Nuclear receptor coactivator 1, sequence (P37231 whole entry): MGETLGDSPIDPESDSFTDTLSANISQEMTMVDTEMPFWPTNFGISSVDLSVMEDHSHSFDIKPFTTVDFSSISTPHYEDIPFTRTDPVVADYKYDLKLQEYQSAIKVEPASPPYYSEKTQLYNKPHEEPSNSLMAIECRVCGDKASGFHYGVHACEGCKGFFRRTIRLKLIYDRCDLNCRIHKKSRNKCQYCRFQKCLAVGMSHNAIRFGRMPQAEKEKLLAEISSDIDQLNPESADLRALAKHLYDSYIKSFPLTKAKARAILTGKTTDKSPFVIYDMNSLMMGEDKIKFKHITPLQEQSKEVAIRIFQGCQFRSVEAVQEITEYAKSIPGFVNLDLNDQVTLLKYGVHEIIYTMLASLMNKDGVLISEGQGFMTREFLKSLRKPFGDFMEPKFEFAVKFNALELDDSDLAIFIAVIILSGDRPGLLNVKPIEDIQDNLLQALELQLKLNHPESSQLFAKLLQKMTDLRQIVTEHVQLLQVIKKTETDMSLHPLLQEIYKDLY
Peroxisome proliferator-activated receptor gamma/Nuclear receptor coactivator 1, sequence (Q15788 whole entry, further chain): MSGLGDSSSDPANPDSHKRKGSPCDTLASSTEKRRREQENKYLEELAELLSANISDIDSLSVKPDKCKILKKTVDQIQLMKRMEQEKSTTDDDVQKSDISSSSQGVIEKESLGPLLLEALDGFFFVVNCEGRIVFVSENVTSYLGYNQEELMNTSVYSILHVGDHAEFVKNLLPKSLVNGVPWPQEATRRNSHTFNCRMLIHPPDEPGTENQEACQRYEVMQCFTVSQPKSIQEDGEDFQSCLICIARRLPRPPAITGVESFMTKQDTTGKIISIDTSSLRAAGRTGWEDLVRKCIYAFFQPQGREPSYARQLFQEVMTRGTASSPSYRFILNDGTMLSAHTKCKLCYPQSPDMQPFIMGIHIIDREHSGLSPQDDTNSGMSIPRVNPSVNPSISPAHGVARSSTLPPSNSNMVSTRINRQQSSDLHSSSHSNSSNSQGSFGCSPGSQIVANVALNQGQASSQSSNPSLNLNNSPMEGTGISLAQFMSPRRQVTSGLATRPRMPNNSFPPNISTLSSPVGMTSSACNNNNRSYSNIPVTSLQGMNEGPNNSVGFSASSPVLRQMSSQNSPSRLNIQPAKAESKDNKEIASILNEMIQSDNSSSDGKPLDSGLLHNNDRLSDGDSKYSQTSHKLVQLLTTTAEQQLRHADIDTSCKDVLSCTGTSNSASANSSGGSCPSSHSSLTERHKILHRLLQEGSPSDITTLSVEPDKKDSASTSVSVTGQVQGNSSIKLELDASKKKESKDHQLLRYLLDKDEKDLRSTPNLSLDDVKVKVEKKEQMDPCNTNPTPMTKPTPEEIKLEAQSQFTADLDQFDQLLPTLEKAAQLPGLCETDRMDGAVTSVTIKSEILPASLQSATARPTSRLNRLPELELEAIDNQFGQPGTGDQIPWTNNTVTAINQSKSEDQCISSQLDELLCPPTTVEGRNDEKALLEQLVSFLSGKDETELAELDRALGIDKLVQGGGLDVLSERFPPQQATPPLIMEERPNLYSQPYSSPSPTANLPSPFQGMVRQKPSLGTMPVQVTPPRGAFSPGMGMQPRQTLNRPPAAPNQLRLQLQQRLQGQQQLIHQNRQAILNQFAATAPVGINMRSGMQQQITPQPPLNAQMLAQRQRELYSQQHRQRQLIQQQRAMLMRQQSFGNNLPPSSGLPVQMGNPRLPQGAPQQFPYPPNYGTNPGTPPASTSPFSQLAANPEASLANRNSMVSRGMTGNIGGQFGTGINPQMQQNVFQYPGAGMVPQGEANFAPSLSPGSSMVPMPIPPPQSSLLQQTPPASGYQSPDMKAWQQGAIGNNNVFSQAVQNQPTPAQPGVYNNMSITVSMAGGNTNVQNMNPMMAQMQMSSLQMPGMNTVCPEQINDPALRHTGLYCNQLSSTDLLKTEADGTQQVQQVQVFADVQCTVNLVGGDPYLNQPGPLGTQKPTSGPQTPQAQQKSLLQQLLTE
Phospholipase A2, sequence (P04054 whole entry): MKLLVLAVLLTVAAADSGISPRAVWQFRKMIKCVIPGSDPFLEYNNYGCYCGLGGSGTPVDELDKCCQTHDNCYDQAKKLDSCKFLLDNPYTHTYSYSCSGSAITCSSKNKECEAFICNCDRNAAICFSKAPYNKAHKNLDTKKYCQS
Nonstructural protein 1, sequence (Q194T2 whole entry): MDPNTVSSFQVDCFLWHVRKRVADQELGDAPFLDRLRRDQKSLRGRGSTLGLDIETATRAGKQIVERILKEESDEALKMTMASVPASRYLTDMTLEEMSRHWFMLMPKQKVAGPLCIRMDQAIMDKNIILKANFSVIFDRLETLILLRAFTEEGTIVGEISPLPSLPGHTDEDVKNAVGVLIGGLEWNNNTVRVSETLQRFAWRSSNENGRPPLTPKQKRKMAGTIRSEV

Turning to `O=C(O)c1ccc(C[n+]2c(-c3ccccc3)csc2Nc2ccccc2)cc1`, the IC50 (as a rule, the concentration that inhibits the measured activity by half) in [1] is > 80 µM (inactive); in [2], 15.1 µM (active).

For the molecule `C/C(=N\NC(=O)c1ccccc1F)c1ccccn1`, the IC50 in [3] was > 20 µM (inactive); in assay [8], 9.17 µM (active); in assay [9], 3.76 µM (inactive); in assay [10] it was > 20 µM (inactive); in assay [11], 5.72 µM (active). For the same molecule, the EC50 – broadly, the concentration giving half of the maximal effect – in assay [4] is 2.9 µM (active); in assay [5], 4.68 µM (inconclusive); in assay [6] it was 12 µM (inconclusive); in [7], > 20 µM (inactive); in assay [12], 10.9 µM (active); in [13] it was 18 µM (active).

Consider `CSc1ccccc1-c1nnc(S)o1`, for which the EC50 in assay [14] is > 150 µM (not active); in assay [15], > 150 µM (not active); in assay [16], 22.3 µM (inactive); in assay [17], > 79.4 µM (not active); in assay [18], > 150 µM (not active); in assay [19] it was 4.77 µM (active).

For the molecule `Cc1ccc(-c2nn3c(C)nnc3s2)cc1NC(=O)c1ccc(-c2cccc(Cl)c2)o1`, the EC50 is 15.4 µM (active) in assay [20], 17.7 µM (inactive) in assay [21] and 17.7 µM (active) in [22]. Besides, the 50% inhibitory concentration (IC50) in assay [23] is listed as > 50 µM (not active).
